Experimental data published in PMC4206221 (Science signaling, 2011).
pIC50: −log10 of the molar value.

Columns and labels:
[1] = molecular target: PLK3 (Homo sapiens, UniProt Q9H4B4); assay: kinase inhibition IC50; format: biochemical
[2] = molecular target: PLK1 (Homo sapiens, UniProt P53350); assay: kinase inhibition IC50; format: biochemical
Sequence of PLK1 (P53350 2-603): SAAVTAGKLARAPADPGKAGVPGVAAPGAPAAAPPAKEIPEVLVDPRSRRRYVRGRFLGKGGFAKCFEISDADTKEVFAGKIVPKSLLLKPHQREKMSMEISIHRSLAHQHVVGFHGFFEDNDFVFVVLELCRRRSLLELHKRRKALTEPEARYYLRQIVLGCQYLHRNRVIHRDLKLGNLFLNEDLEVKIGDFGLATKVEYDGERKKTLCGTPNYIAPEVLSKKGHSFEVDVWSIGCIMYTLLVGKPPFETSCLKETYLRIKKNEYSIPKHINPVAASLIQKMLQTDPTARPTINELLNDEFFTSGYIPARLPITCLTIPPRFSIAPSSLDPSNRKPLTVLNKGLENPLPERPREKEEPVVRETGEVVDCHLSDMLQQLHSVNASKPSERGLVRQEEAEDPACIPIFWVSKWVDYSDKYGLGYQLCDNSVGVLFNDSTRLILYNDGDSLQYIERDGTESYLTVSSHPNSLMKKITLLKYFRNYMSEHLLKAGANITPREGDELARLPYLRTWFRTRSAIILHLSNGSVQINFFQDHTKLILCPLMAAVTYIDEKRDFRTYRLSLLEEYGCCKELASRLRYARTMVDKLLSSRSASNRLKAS

Sequence of PLK3 (Q9H4B4 whole entry): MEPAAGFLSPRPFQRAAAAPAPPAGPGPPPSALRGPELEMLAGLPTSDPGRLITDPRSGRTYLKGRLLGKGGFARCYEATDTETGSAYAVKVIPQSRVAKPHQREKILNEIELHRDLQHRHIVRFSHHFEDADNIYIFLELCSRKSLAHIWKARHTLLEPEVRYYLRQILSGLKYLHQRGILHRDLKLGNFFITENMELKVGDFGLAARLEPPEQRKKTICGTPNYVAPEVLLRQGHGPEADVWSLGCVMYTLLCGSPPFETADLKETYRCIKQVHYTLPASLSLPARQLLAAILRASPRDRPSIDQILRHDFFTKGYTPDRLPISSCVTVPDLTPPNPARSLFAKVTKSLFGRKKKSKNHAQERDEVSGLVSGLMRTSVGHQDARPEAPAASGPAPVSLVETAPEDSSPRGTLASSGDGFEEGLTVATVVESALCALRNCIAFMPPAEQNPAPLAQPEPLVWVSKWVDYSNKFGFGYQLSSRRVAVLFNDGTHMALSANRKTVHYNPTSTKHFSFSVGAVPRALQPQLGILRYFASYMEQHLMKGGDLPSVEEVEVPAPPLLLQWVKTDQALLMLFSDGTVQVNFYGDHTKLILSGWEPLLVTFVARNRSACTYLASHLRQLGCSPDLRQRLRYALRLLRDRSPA

With `CC[C@@H]1C(=O)N(C)c2cnc(Nc3ccc(C(=O)NC4CCC(N5C[C@@H](C)O[C@@H](C)C5)CC4)cc3OC)nc2N1C(C)C` (some centres unmarked) [BI 4834] the pIC50 [1] was 6.70 and the pIC50 [2] was 8.12.
